Experimental data taken from US12617831B2 (UNIVERSITE D'ANGERS, priority 2019, dated 2026).

Tests used:
Murine MC3T3-E1 cells = assay: Collagen maturity assay in MC3T3-E1 cultures (Example 2); format: cell-based; conditions: compared with [D-Ala^2]GIP1-30NH2 and [Gly^2]GLP-2
Description: At confluence, the propagation medium was replaced by the differentiation medium containing αMEM supplemented with 5% FBS, 5% bovine calf serum, 100 U/mL penicillin, 100 μg/mL streptomycin, 50 μg/ml ascorbic acid and various concentrations of analogues. This day was considered as day 1. The differentiation medium was replenished every two days. […] Cultures were rinsed at least six times with milliQ water, fixed in absolute ethanol, scrapped off the culture dish and transferred onto BaF2 windows where they were air-dried. Integrity of the collagen extracellular matrix was verified by comparing the obtained Fourier transform infrared spectrum with those of commercial collagen. Spectral analysis was performed using a Bruker Vertex 70 spectrometer (Bruker optics, Ettlingen, Germany) interfaced with a Bruker Hyperion 3000 infrared microscope equipped with a standard single element Mercury Cadmium Telluride (MCT) detector. Infrared spectra were recorded at a resolution of 4 cm^−1, with an average of 32 scans in transmission mode. Background spectral images were collected under identical conditions from the same BaF2 windows at the beginning and end of each experiment to ensure instrument stability. At least 20 spectra were acquired for each condition and analyzed with a lab-made routine script in Matlab R2016b (The Mathworks, Natick, MA).

[1] = tested on: ovariectomy-induced bone loss in mice; assay: Cortical bone strength, 3-point bending at the midshaft femur, ovariectomized mice; format: in vivo
Description: At 16 weeks of age, ALZET osmotic pumps (model number 2006, Durect Corp., Cupertino, CA) filled with the below saline or peptide were implanted subcutaneously between the two scapula under general anesthesia in 32 mice. Successful filling of pumps was verified by weighting the pump before and after filling. At 20 weeks of age, ALZET osmotic pumps were replaced by similar pumps to ensure delivery for four new weeks. […] This dose and regimen of zoledronic acid was equivalent to the 5 mg infusion approved for the treatment of post-menopausal osteoporosis in humans. At necropsy, femurs and second lumbar vertebras (L2) were cleaned of soft tissue and immediately frozen in a saline-soaked gauze at −20° C. Three-point-bending experiments were performed on femurs after thawing bones at 4° C. overnight. Femurs were loaded to failure in 3-point bending at 2 mm/min using a servohydraulic materials testing system (Instron 5942, Instron, Elancourt, France). The lower span length was of 10 mm. Femurs were oriented so the anterior quadrant was facing down and subjected to tensile loads. Load and displacement of the upper crosshead, which were digitally recorded at a sampling rate of 100 Hz, were measured using a 500 N load cell (Instron). Stiffness, ultimate load, yield load, post-yield displacement (PYD), and work-to-fracture were calculated from the load-displacement curves. PYD was defined as the displacement at failure minus the displacement at yield.

[2] = tested on: ovariectomy-induced bone loss in mice; assay: Trabecular bone strength, compression test of second lumbar vertebra, ovariectomized mice; format: in vivo; conditions: OVX mice, vs vehicle; GL-0001 25, GL-0007 25 and 100 nmoles/kg/day; zoledronic acid once 100 μg/kg
Description: At 16 weeks of age, ALZET osmotic pumps (model number 2006, Durect Corp., Cupertino, CA) filled with the below saline or peptide were implanted subcutaneously between the two scapula under general anesthesia in 32 mice. Successful filling of pumps was verified by weighting the pump before and after filling. At 20 weeks of age, ALZET osmotic pumps were replaced by similar pumps to ensure delivery for four new weeks. […] This dose and regimen of zoledronic acid was equivalent to the 5 mg infusion approved for the treatment of post-menopausal osteoporosis in humans. Compression experiments were performed on L2. Briefly, vertebral bodies were carefully dissected and glued with cyanoacrylate glue on a Plexiglas plate and then incubated in saline at 4° C. until use the next day. L2 vertebral bodies were compressed to failure at a displacement rate of 1 mm/min using an Instron 5942 device. Load and displacement of the upper plateau were recorded at a sampling rate of 100 Hz. Maximum load and stiffness were computerized from load-displacement curves.

[3] = tested on: ovariectomy-induced bone loss in mice; assay: Bone matrix composition by FTIRI at the femur midshaft, ovariectomized mice; format: in vivo; conditions: OVX mice, cortical bone femur, vs vehicle
Description: At 16 weeks of age, ALZET osmotic pumps (model number 2006, Durect Corp., Cupertino, CA) filled with the below saline or peptide were implanted subcutaneously between the two scapula under general anesthesia in 32 mice. Successful filling of pumps was verified by weighting the pump before and after filling. At 20 weeks of age, ALZET osmotic pumps were replaced by similar pumps to ensure delivery for four new weeks. […] This dose and regimen of zoledronic acid was equivalent to the 5 mg infusion approved for the treatment of post-menopausal osteoporosis in humans. After three-point bending experiments, femurs were embedded undecalcified in pMMA at 4° C. One-micrometer cross-sectional sections of the midshaft femur were sandwiched between BaF2 optical windows and Fourier transform infrared imaging (FTIRI) assessment was performed in the posterior quadrant. FTIRI was performed with a vertex 70 spectrometer (Bruker, Ettlingen, Germany) interfaced with a Hyperion 3000 microscope and a focal plane array detector (64×64 pixels) covering a field of view of 180×180 μm. Nine field-of-view were stitched together to allow sufficient bone to be analyzed. Sections were scanned with a spectral resolution of 8 cm^-1 (spectral region 900-2000 cm^-1). Each spectrum was corrected for Mie scattering with the […]5 algorithm (kind gift of Prof Peter Gardner, University of Manchester, UK) prior to be subjected to pMMA subtraction. Evaluation of spectral images was done with a lab-made routine script in Matlab R2016b (The Mathworks, Natick, MA) as described in Aguado et al. (2017) Calcif Tissue Int 100:332-340. FTIR bone parameters ([…] (2012) Methods Mol Biol 816:517-525) calculated were: (1) phosphate/amide ratio (area of v1, v3 phosphate/area amide1); (2) acid phosphate content (intensity ratio 1127 cm^-1/1096 cm^-1) (Spevak et al. (2013) Calcif Tissue Int 92:418-428); (3) mineral crystallinity (intensity ratio 1030 cm^-1/1020 cm^-1), reflecting crystal size and perfection; […] (2001) J Bone Miner Res 16:893-900). For each of the compositional parameters, the mean and full width at half maximum of the pixel distribution (excluding the zero background values) were computed and represented as mean and heterogeneity.

[4] = OVX mice, 100 nmoles/kg/day, 8 weeks, vs vehicle

SMILES	potency versus native peptides, based on osteoclast formation in vitro and collagen maturity in vitro (Murine MC3T3-E1 cells)	increase in work-to-fracture ([1]; OVX mice, 25 nmoles/kg/day, 8 weeks, vs vehicle) [%]	increase in post-yield displacement ([1]; mouse, in vivo) [%]	increase in ultimate displacement ([1]; mouse, in vivo) [%]	bone stiffness, compression of second lumbar vertebra [2]	increase in acid phosphate content heterogeneity ([3]; 25 nmoles/kg/day) [%]	increase in collagen maturity heterogeneity ([3]; 25 nmoles/kg/day) [%]	increase in mean collagen maturity ([3]; 25 nmoles/kg/day) [%]	augmentation in work-to-fracture [1, 4] [%]	increase in post-yield displacement [1, 4] [%]	increase in ultimate displacement [1, 4] [%]	augmentation of acid phosphate content heterogeneity ([3]; 100 nmoles/kg/day) [%]
CC[C@H](C)[C@H](NC(=O)[C@H](CO)NC(=O)[C@H](CCSC)NC(=O)[C@H](CC(=O)O)NC(=O)[C@H](CO)NC(=O)CNC(=O)[C@H](Cc1ccccc1)NC(=O)[C@H](CO)NC(=O)CNC(=O)[C@H](CCC(=O)O)NC(=O)CNC(=O)[C@@H](N)Cc1c[nH]cn1)C(=O)N[C@@H](C)C(=O)N[C@@H](CC(C)C)C(=O)N[C@@H](CC(=O)O)C(=O)N[C@@H](CCCCN)C(=O)N[C@@H](CC(C)C)C(=O)N[C@@H](C)C(=O)N[C@@H](C)C(=O)N[C@@H](CCCNC(=N)N)C(=O)N[C@@H](CC(=O)O)C(=O)N[C@@H](Cc1ccccc1)C(=O)N[C@H](C(=O)N[C@@H](CC(N)=O)C(=O)N[C@@H](Cc1c[nH]c2ccccc12)C(=O)N[C@@H](CC(C)C)C(=O)N[C@@H](CC(C)C)C(=O)N[C@@H](CCC(N)=O)C(=O)N[C@H](C(=O)N[C@@H](CCCCN)C(=O)N[C@H](C(=O)N[C@H](C(=O)N[C@@H](CC(=O)O)C(=O)O)[C@@H](C)O)[C@@H](C)CC)[C@@H](C)O)C(C)C [GL-0001]	better potency than each native peptide	37	70	34	significantly reduced	21	28	10				
CC[C@H](C)[C@H](NC(=O)[C@H](CO)NC(=O)[C@H](Cc1ccccc1)NC(=O)[C@H](CC(=O)O)NC(=O)[C@H](CO)NC(=O)CNC(=O)[C@H](Cc1ccccc1)NC(=O)[C@H](CO)NC(=O)CNC(=O)[C@H](CCC(=O)O)NC(=O)CNC(=O)[C@@H](N)Cc1c[nH]cn1)C(=O)N[C@@H](C)C(=O)N[C@@H](CC(C)C)C(=O)N[C@@H](CC(=O)O)C(=O)N[C@@H](CCCCN)C(=O)N[C@@H](CC(C)C)C(=O)N[C@@H](C)C(=O)N[C@@H](C)C(=O)N[C@@H](CCCNC(=N)N)C(=O)N[C@@H](CC(=O)O)C(=O)N[C@@H](Cc1ccccc1)C(=O)N[C@H](C(=O)N[C@@H](CC(N)=O)C(=O)N[C@@H](Cc1c[nH]c2ccccc12)C(=O)N[C@@H](CC(C)C)C(=O)N[C@@H](CC(C)C)C(=O)N[C@@H](CCC(N)=O)C(=O)N[C@H](C(=O)N[C@@H](CCCCN)C(N)=O)[C@@H](C)O)C(C)C [GL-0007]	better potency than each native peptide				significantly reduced				33	62	33	18
